# Assay results from US11203754B2, “Microrna compositions and methods of making and using same” (Advanced ReGen Medical Technologies, LLC, priority 2016, dated 2021).
# Tests used:
# [1] = system: SNORD68; assay: Exosomal RNA (ExoRNA) level, SNORD68, with inhibitors; type: cell-based; details: BCI-137 10 μM, GW4869 3.5 μM; NONE = 1
# Procedure: (§1) Exosomes were collected and quantified to determine the effects of inhibitors on exosome production while RNA extracted from the exosomes were analyzed to determine exosome depletion and levels of RNA depletion.
# (§2) SNORD68 and SNORD95 are small nucleolar RNAs.
# [2] = system: CD34+ cells; assay: Effect of inhibitors on cell function (total cell vitality, CD34+ cell vitality, CD34+ cell expansion); details: inhibitor added to transwell culture
# Procedure: (§3) To the transwell cultures was added either a pharmacological inhibitor of exosome biogenesis GW4869 (3.5 μM) or an inhibitor of exosome packaging BCI-137 (10 μM). […] Inhibitors were added to the transwell cultures upon initial seeding (Day 0) and again at Day 3.
# (§4) Further analysis of the effect of the inhibitors on cell function was assessed by determining the total cell vitality, the CD34+ cell vitality and the extent of CD34+ cell expansion.
# [3] = system: SNORD95; assay: Exosomal RNA (ExoRNA) level, SNORD95, with inhibitors; type: cell-based; details: BCI-137 10 μM, GW4869 3.5 μM; NONE = 1
# Procedure: as §1, §2
# [4] = system: miRNAs in exosomes; assay: miRNA depletion in exosomes harvested from the heterochronic culture; type: cell-based
# Procedure: as §1, §2
# [5] = system: CD34+ cells; assay: Effect of inhibitor on CD34+ differentiation potential and restoration; type: cell-based
# Excerpt: as §2
# [6] = system: adult stem cells in transwell culture; assay: Exosome production in transwell cultures with exosome inhibitors; type: cell-based; details: BCI-137 10 μM, GW4869 3.5 μM, added Day 0 and Day 3, NONE = 710
# Procedure: A series of transwell experiments were carried out by placing adult stem cells of a donor subject (i.e., donor cells) in the upper chamber of a transwell assembly while the adult stem cells of a receiver subject (i.e. receiver cells) were placed in the lower chamber. Referring to FIG. 2, the transwell culture 400 comprised an insert 410 having a permeable surface that allows the donor cells to uptake and secrete molecules on the basal and/or apical surfaces of the transwell. The transwell insert 410 comprised a permeable membrane with a 0.4 μm pore size. At least a portion of the donor cell sample 420 was applied to the transwell insert 410 while the receiver cell sample 430 was positioned within the lower compartment of the transwell culture with an appropriate amount of culture media.
# as §1
# [7] = system: CD34+ cells
# Procedure: as §3, §4
# [8] = system: CD34+ stem cell; assay: microRNA nucleofection into mature blood cells: CD34+ clonogenicity (CFU-GM); type: cell-based, human; details: Table 8 Experiment #1; total 60 nM into mature blood cells; siRNA vehicle = 20, No Treatment = 10
# Procedure: Candidate microRNAs involved in facilitating adoptive cellular restoration therapy were miR-146a, miR-103a, miR-106a and miR-19a. Combinations of candidate microRNAs were nucleofected at a total concentration of 60 nM into mature blood cells using the CD34+ cell human nucleofector kit (Lonza) and the human CD34+ cell protocol, and effect on CD34+ stem cell vitality and clonogenicity were evaluated compared to siRNA vehicle control. Further, the microRNA combination of miR-103a, miR-106b and miR-19a were nucleofected at a total concentration of 90 nM into mature blood cells using the P3 Primary Cell 4D-Nucleofector X Kit (Lonza) and the human T cell high efficiency protocol, and effect on T cell activation and cell-mediated cytotoxicity were evaluated compared to siRNA vehicle control. Additional candidate microRNAs involved in facilitating adoptive cellular restoration therapy identified were miR-1303, miR-7851-3p, miR-223, miR-4497, miR-619-5p and miR-1273f. Combinations of these additional candidate microRNAs were nucleofected at a total concentration of 60 nM into mature blood cells using the CD34+ cell human nucleofector kit (Lonza) and the human CD34+ cell protocol, and effect on CD34+ clonogenicity was evaluated compared to siRNA vehicle control.
compound,measurement,setting,value
CC(NS(=O)(=O)c1ccc2[nH]c(=O)c(=O)[nH]c2c1)C(=O)O (stereo not shown) [BCI-137],Fold Change in ExoRNA SNORD68,[1],0.24 Fold Change
same,effect on the juvenile or mature cell health,[2],no effect
same,Fold Change in ExoRNA SNORD95,[3],0.33 Fold Change
same,depletion of miRNAs in exosomes,[4],effectively depleted miRNAs
same,restorative effects of adoptive cell restoration,[5]; inhibition by BCI-137,blocked the restorative effects
same,differentiation in CD34+ heterochronic cells,[5]; inhibition with BCI-137,decreased
same,differentiation potential in the CD34+ mature cells,[5]; inhibition with BCI-137,increased
same,Exosome Production (# exosomes × 10^8),[6],604 # exosomes × 10^8
O=C(/C=C/c1ccc(/C=C/C(=O)Nc2ccc(C3=NCCN3)cc2)cc1)Nc1ccc(C2=NCCN2)cc1 [GW4869],Fold Change in ExoRNA SNORD68,[1],0.43 Fold Change
same,toxicity to CD34+ cells,[7],appeared toxic
same,Fold Change in ExoRNA SNORD95,[3],0.67 Fold Change
same,depletion of miRNAs in exosomes,[4],effectively depleted miRNAs
same,Exosome Production (# exosomes × 10^8),[6],558 # exosomes × 10^8
"miR-223: isolated microRNA miR-223-5p (SEQ ID NO:5) (CGUGUAUUUGACAAGCUGAGUU; listed as RNA, chemistry not given here; listed as Homo sapiens)",CD34+ Differentiation (# CFU-GM),[8],10 # CFU-GM
"miR-619-5p: isolated microRNA miR-619-5p (SEQ ID NO:8) (GCUGGGAUUACAGGCAUGAGCC; listed as RNA, chemistry not given here; listed as Homo sapiens)",CD34+ Differentiation (# CFU-GM),[8],46 # CFU-GM
"miR-1273f: isolated microRNA miR-1273f (SEQ ID NO:9) (GGAGAUGGAGGUUGCAGUG; listed as RNA, chemistry not given here; listed as Homo sapiens)",CD34+ Differentiation (# CFU-GM),[8],9 # CFU-GM
"miR-1303: isolated microRNA miR-1303 (SEQ ID NO:7) (UUUAGAGACGGGGUCUUGCUCU; listed as RNA, chemistry not given here; listed as Homo sapiens)",CD34+ Differentiation (# CFU-GM),[8],32 # CFU-GM
"miR-4497: isolated microRNA miR-4497 (SEQ ID NO:6) (CUCCGGGACGGCUGGGC; listed as RNA, chemistry not given here; listed as Homo sapiens)",CD34+ Differentiation (# CFU-GM),[8],20 # CFU-GM
"miR-7851-3p: isolated microRNA miR-7851-3p (SEQ ID NO:10) (UACCUGGGAGACUGAGGUUGGA; listed as RNA, chemistry not given here; listed as Homo sapiens)",CD34+ Differentiation (# CFU-GM),[8],14 # CFU-GM
